Experiments:
polyamine transporter [1] = assay: Inhibition of [3H]putrescine uptake in ZR-75-1 cells; type: cell-based, human; conditions: for Mode of inhibition of [3H]putrescine uptake: Lineweaver-Burke, DESC up to 100 μM, MESC up to 200 μM; for Ki: ZR-75-1 cells
Description: (§1) The rate of putrescine and spermidine transport was determined in ZR-75-1 cells incubated in serum-free RPMI 1640 medium as described (Lessard, M., Zhao, C., Singh, S. M. and Poulin, R. 1995. J. Biol. Chem. 270: 1685-1694), using [^3H]putrescine (30 Ci/mol) and [^3H]spermidine (20 Ci/mol), respectively as substrates for a 20 minute-assay period. Spermine uptake was similarly determined, using 1 μM [^14C]spermine (32 Ci/mol) as substrate. Uptake activity was expressed per amount of DNA as fluorometrically determined using 3,4-diaminobenzoic acid (Simard, J., Dauvois, S., Haagensen, D. E., Lėvesque, C., Mėrand, Y. and Labrie, F. 1990. Endocrinology, 126: 3223-3231). For the determination of spermidine uptake activity in CHO-K1 cells, 80% confluent cell monolayers were rinsed twice with PBS and incubated for 20 minutes at 37° C. in 400 μl of buffer A (20 mM Tris-HCl, pH 7.4; 0.42 mM CaCl2; 0.41 mM MgSO4; 103 mM NaCl; 5.7 mM KCl; 1.1 mM D-glucose) containing 5 μM [^3H]spermidine (20 Ci/mol). Cell cultures were then washed twice with 1 ml PBS containing 5.7 mM sym-norspermidine. Cells were then lysed with 200-μl aliquot of 1 N NaOH and incubated for 30 minutes at 60° C. After neutralization with 200 μl of 1 N HCl, radioactivity was determined from a 250-μl of the cell lysate by scintillation counting. Uptake activity was expressed per amount of total cellular protein as determined by the method of Bradford (Bradford, M. M. 1976. Anal. Biochem. 72: 248-254). Non-specific binding of radioactive substrate was similarly determined in parallel for both cell lines after a 15 second-incubation with 400 μl of ice-cold uptake solution.
(§2) Kinetic analysis of polyamine transport was performed by determining uptake activity in the presence of a 3 μM [^3H]putrescine or 1 μM [^3H]spermidine plus increasing concentrations of nonradioactive substrate. K[…] Ki and Vmax values were then estimated by Lineweaver-Burke analysis. For competitive inhibitors, Ki values were also estimated by measuring uptake activity in the presence of logarithmically increasing concentrations of antagonist, and using the Cheng-Prusoff equation (Cheng, Y.-C. and Prusoff, W. H. 1973. Biochem. Pharmacol. 22: 3099-3108) by iterative curve fitting for a sigmoidal curve. For mixed competitive/noncompetitive inhibition, two methods were used to calculate kinetic constants. First, the equation [drawing 2] where v, s, and i are the transport velocity, substrate concentration and inhibitor concentration respectively, was used to calculate the inhibition constants for inhibitor/carrier complex formation (Ki) and carrier/inhibitor/substrate complex formation (Ki′) (Dixon, M. and Webb, E. C. 1976. Enzymes, 3rd Ed., Academic Press, San Diego, Calif.). Alternatively, the value of Ki for a mixed competitor/non-competitor was estimated from the intersect of equations v^−1 vs i at two different substrate concentrations (Dixon, M. and Webb, E. C. 1976. Enzymes, 3rd Ed., Academic Press, San Diego, Calif.). Intracellular Accumulation
(§3) In order to evaluate the effectiveness of dimeric triamines as polyamine transport inhibitors, we synthesized N,N′-bis(3-aminopropyl),N,N′-bis(4-aminobutyl)cystamine or BABAC (structure 1, FIG. 25; FIG. 31), and its thiol form N-(3-aminopropyl),N-(4-aminobutyl)cysteamine or AAC (FIG. 31) according to Scheme 4 described above (FIG. 30), using spermidine as a precursor polyamine. The ability of BABAC and AAC to inhibit the intracellular uptake of radio-labeled putrescine and spermidine in the ZR-75-1 human breast cancer cell line was then determined according to standard published procedures (Lessard, et al. and Poulin, et al.) Briefly, ZR-75-1 cells were grown for four days in twenty-four well plates in RPMI 1640 medium supplemented with 10% fetal bovine serum.

polyamine transporter [2] = assay: Inhibition of [14C]spermine uptake in ZR-75-1 cells; type: cell-based, human
Description: as §1, with “Spermine uptake was similarly determined, using 1 μM [^14C]spermine (32 Ci/mol) as substrate.” left out
as §2, §3

[3] = this work, DEASC: Ki of mixed competitive/non-competitive model, read-out: Ki, putrescine transport
[4] = this work, read-out: Km or Ki, spermine transport

Compound	Mode of inhibition of [3H]putrescine uptake (polyamine transporter [1])	Ki (polyamine transporter [1]; FIG. 32, 20 μM and 3 μM substrate, respectively, read-out: Apparent Ki, putrescine uptake) [µM]	Ki (polyamine transporter [1]; [3]) [µM]	Ki (polyamine transporter [2]; FIG. 32, read-out: Apparent Ki, spermine uptake) [µM]	Ki (polyamine transporter [2]; [4]) [µM]	Ki for [14C]spermine transport, fold higher than that of DESC (polyamine transporter [2]; FIG. 2) [fold]
NCCCNCCCC(NCCCN)C(=O)NCCSSCCNC(=O)C(CCCNCCCN)NCCCN (stereo not drawn) [DESC, 2,2′-dithiobis(N-ethyl-spermine-5-carboxamide)]	pure competitive inhibitors	0.54	1.6 ± 0.5	7.5	5 ± 0.7	
NCCCNCCCC(NCCCN)C(=O)NCCS (stereo not drawn) [MESC, N-(2-mercaptoethyl)spermine-5-carboxamide]	pure competitive inhibitors		22 ± 3		80 ± 31	~16

Reference: patent US6949679B1, “Polyamine transport inhibitors” (Universite Laval, priority 1998, dated 2005)
